# Source: PubChem BioAssay (NCI)
#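 The compound was tested at five concentrations on cells cultured in 96-well plates, with a 48-hour exposure period. At the GI50, growth is halved. TGI: total growth inhibition.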 Where a SMILES comes first, the peptide text is derived from it. [ ]: non-standard residue; d: D form. The star is where a group is joined. X13 = OC[C@H](CC1CCCCC1)N*; dIva = CC[C@@](C)(N)C(=O)O; Aib = CC(C)(N)C(=O)O
# Tests used:
# Assay in all cases: NCI anticancer screen, dose series, 48 h
# [1] = tested on: A498 renal
# [2] = tested on: A549 NSCLC
# [3] = tested on: ACHN renal
# [4] = tested on: CCRF-CEM leukemia
# [5] = tested on: COLO 205 colon
# [6] = tested on: EKVX NSCLC
# [7] = tested on: HCC-2998 colon
# [8] = tested on: HCT-15 colon
# [9] = tested on: HL-60(TB) leukemia
# [10] = tested on: HOP-62 NSCLC
# [11] = tested on: HOP-92 NSCLC
# [12] = tested on: HS 578T breast
# [13] = tested on: HT29 colon
# [14] = tested on: IGROV1 ovarian
# [15] = tested on: K-562 leukemia
# [16] = tested on: KM12 colon
# [17] = tested on: LOX IMVI melanoma
# [18] = tested on: MALME-3M melanoma
# [19] = tested on: MCF7 breast
# [20] = tested on: MDA-MB-231 breast
# [21] = tested on: MDA-MB-435
# [22] = tested on: MOLT-4 leukemia
# [23] = tested on: NCI-H226 lung
# [24] = tested on: NCI-H23 lung
# [25] = tested on: NCI-H460 lung
# [26] = tested on: NCI-H522 lung
# [27] = tested on: NCI/ADR-RES ovarian
# [28] = tested on: OVCAR-3 ovarian
# [29] = tested on: OVCAR-4 ovarian
# [30] = tested on: OVCAR-5 ovarian
# [31] = tested on: OVCAR-8 ovarian
# [32] = tested on: PC-3 prostate
# [33] = tested on: RPMI-8226 leukemia
# [34] = tested on: RXF 393 renal
# [35] = tested on: SF-268 CNS
# [36] = tested on: SF-295 CNS
# [37] = tested on: SF-539 CNS
# [38] = tested on: SK-MEL-2 melanoma
# [39] = tested on: SK-MEL-28 melanoma
# [40] = tested on: SK-MEL-5 melanoma
# [41] = tested on: SK-OV-3 ovarian
# [42] = tested on: SN12C renal
# [43] = tested on: SNB-19 CNS
# [44] = tested on: SNB-75 CNS
# [45] = tested on: SR leukemia
# [46] = tested on: SW-620 colon
# [47] = tested on: T-47D breast
# [48] = tested on: TK-10 renal
# [49] = tested on: U251 CNS
# [50] = tested on: UACC-257 melanoma
# [51] = tested on: UACC-62 melanoma
# [52] = tested on: UO-31 renal
structure (smiles),measurement,setting,value
CC[C@@](C)(NC(=O)C(C)(C)NC(=O)[C@@H](NC(=O)[C@@H]1CCCN1C(=O)C(C)(C)NC(=O)[C@H](CC(C)C)NC(=O)CNC(=O)C(C)(C)NC(=O)[C@@H](NC(=O)C(C)(C)NC(=O)[C@H](CCC(N)=O)NC(=O)[C@H](C)NC(=O)C(C)(C)NC(=O)[C@H](C)NC(=O)C(C)(C)NC(=O)[C@H](C)NC(=O)C(C)(C)NC(C)=O)C(C)C)C(C)C)C(=O)N[C@@H](CCC(N)=O)C(=O)N[C@@H](CCC(N)=O)C(=O)N[C@H](CO)CC1CCCCC1 (Ac-[Aib]A[Aib]A[Aib]AQ[Aib]V[Aib]GL[Aib]PV[Aib][dIva]QQ-X13),GI50,[1],1390 nM
same,TGI,[1],> 5000 nM
same,GI50,[2],3000 nM
same,TGI,[2],> 5000 nM
same,GI50,[3],> 5000 nM
same,TGI,[3],> 5000 nM
same,GI50,[4],2790 nM
same,TGI,[4],> 5000 nM
same,GI50,[5],1470 nM
same,TGI,[5],> 5000 nM
same,GI50,[6],> 5000 nM
same,TGI,[6],> 5000 nM
same,GI50,[7],2040 nM
same,TGI,[7],> 5000 nM
same,GI50,[8],> 5000 nM
same,TGI,[8],> 5000 nM
same,GI50,[9],1440 nM
same,TGI,[9],4020 nM
same,GI50,[10],> 5000 nM
same,TGI,[10],> 5000 nM
same,GI50,[11],854 nM
same,TGI,[11],3380 nM
same,GI50,[12],1810 nM
same,TGI,[12],> 5000 nM
same,GI50,[13],2250 nM
same,TGI,[13],> 5000 nM
same,GI50,[14],2650 nM
same,TGI,[14],> 5000 nM
same,GI50,[15],1780 nM
same,TGI,[15],> 5000 nM
same,GI50,[16],1890 nM
same,TGI,[16],> 5000 nM
same,GI50,[17],1490 nM
same,TGI,[17],> 5000 nM
same,GI50,[18],1180 nM
same,TGI,[18],3980 nM
same,GI50,[19],281 nM
same,TGI,[19],> 5000 nM
same,GI50,[20],1530 nM
same,TGI,[20],> 5000 nM
same,GI50,[21],1550 nM
same,TGI,[21],> 5000 nM
same,GI50,[22],2650 nM
same,TGI,[22],> 5000 nM
same,GI50,[23],> 5000 nM
same,TGI,[23],> 5000 nM
same,GI50,[24],1060 nM
same,TGI,[24],> 5000 nM
same,GI50,[25],1600 nM
same,TGI,[25],> 5000 nM
same,GI50,[26],1280 nM
same,TGI,[26],> 5000 nM
same,GI50,[27],> 5000 nM
same,TGI,[27],> 5000 nM
same,GI50,[28],1250 nM
same,TGI,[28],> 5000 nM
same,GI50,[29],2820 nM
same,TGI,[29],> 5000 nM
same,GI50,[30],2840 nM
same,TGI,[30],> 5000 nM
same,GI50,[31],> 5000 nM
same,TGI,[31],> 5000 nM
same,GI50,[32],1320 nM
same,TGI,[32],> 5000 nM
same,GI50,[33],198 nM
same,TGI,[33],1870 nM
same,GI50,[34],1750 nM
same,TGI,[34],> 5000 nM
same,GI50,[35],1740 nM
same,TGI,[35],> 5000 nM
same,GI50,[36],> 5000 nM
same,TGI,[36],> 5000 nM
same,GI50,[37],1490 nM
same,TGI,[37],> 5000 nM
same,GI50,[38],1220 nM
same,TGI,[38],3830 nM
same,GI50,[39],2040 nM
same,TGI,[39],> 5000 nM
same,GI50,[40],1310 nM
same,TGI,[40],4840 nM
same,GI50,[41],1890 nM
same,TGI,[41],> 5000 nM
same,GI50,[42],460 nM
same,TGI,[42],> 5000 nM
same,GI50,[43],1380 nM
same,TGI,[43],> 5000 nM
same,GI50,[44],1240 nM
same,TGI,[44],> 5000 nM
same,GI50,[45],2010 nM
same,TGI,[45],> 5000 nM
same,GI50,[46],3650 nM
same,TGI,[46],> 5000 nM
same,GI50,[47],1560 nM
same,TGI,[47],> 5000 nM
same,GI50,[48],> 5000 nM
same,TGI,[48],> 5000 nM
same,GI50,[49],1490 nM
same,TGI,[49],> 5000 nM
same,GI50,[50],1000 nM
same,TGI,[50],4410 nM
same,GI50,[51],1860 nM
same,TGI,[51],> 5000 nM
same,GI50,[52],> 5000 nM
same,TGI,[52],> 5000 nM
